Results reported in patent US20250230148A1, “CRYSTAL OF FUSED TRICYCLIC DERIVATIVE OR PHARMACEUTICALLY ACCEPTABLE SALT THEREOF” (CHIA TAI TIANQING PHARMACEUTICAL GROUP CO., LTD., priority 2022, published 2025).

Legend:
[1] = Crystal stability under 94% RH, XRPD after placement; type: physicochemical; conditions: 94% RH at room temperature for 1 to 2 weeks
Procedure: • Instrument model: X' Pert3. • Method: taking a sample of about 10 to 20 mg for XRPD analysis. • Detailed XRPD parameters are as follows: • X-ray source: Cu, kα (Kα1=1.540598 Δ, Kα2=1.544426 Δ, Kα2/Kα1 intensity ratio: 0.5) • Tube voltage: 45 kV, tube current: 40 mA • Divergence slit: fixed ⅛° • First seller slit: 0.04 rad, Second soller slit: 0.04 rad • Receiving slit: none, Anti-scatter slit: 7.5 mm • Measurement time: 5 min • scan range: 3 to 40° • Step width angle: 0.0263° • Step length: 46.665 seconds • Rotation speed of sample plate: 60 rpm
The crystal form E of the compound of formula (I) was placed under 94% RH at room temperature for 1 to 2 weeks and then subjected to XRPD testing to evaluate its solid stability in the high humidity environment.

[2] = Dynamic vapor sorption (DVS) test; type: physicochemical
Procedure: • Instrument model: SMS DVS Advantage Dynamic Vapor Sorption Analyzer • Test conditions: Taking a sample (10 to 15 mg) and placing in a DVS sample dish for testing. • Detailed DVS parameters are as follows: • Temperature: 25° C. • Equilibration: dm/dt=0.01%/min (Minimum: 10 min, Maximum: 180 min) • Drying: drying 120 min under 0% RH • RH (%) test gradient: 10% • RH (%) test gradient range: 0% to 90% to 0%.
At the same time, a DVS test was performed on the crystal form C of the compound of formula (I).

[3] = Crystal stability under high humidity conditions, TGA after placement; type: physicochemical; conditions: 24 hours
Procedure: • Instrument model: TA Q5000/5500 Thermal Gravimetric Analyzer • Test method: Taking a sample (about 1 to 5 mg) and placing in a TGA aluminum dish for testing, and heating the sample from room temperature to 350° C. at a heating rate of 10° C./min under 10 mL/min N2 conditions.
The crystal form C of the compound of formula (I) was placed under different humidity conditions at room temperature and then tested by TGA to preliminarily evaluate its water content changes under different humidity conditions.

M2 receptor = M2 receptor (Homo sapiens (Human), UniProt P08172); experiment: M2 receptor affinity test (3H-NMS competition); type: binding; conditions: M2 receptor membrane protein, 0.2 nM 3H-NMS
Procedure: M2 receptor is a G protein-coupled receptor. In this experiment, the activity of test compound against the M2 receptor in vitro was assayed by the competition of radioisotope labeled NMS and non-isotope labeled test compound for an M2 binding site.
The M2 receptor membrane protein was prepared at 100 μg/mL by Biology Department of WuXi AppTec, and compound was serially diluted in a 2.5-fold gradient in DMSO to obtain 10 concentrations. Radioisotope 3H-NMS was prepared at 0.2 nM in an assay buffer (10 mM HEPES, 1 mM MgCl2, pH 7.40). In formal testing, the experimental system comprising 1 μL of the test compound, 100 μL of M2 receptor membrane protein and 100 μL of radioisotope was shaken in a shaker at 300 RPM for 2 h at room temperature. A GF/C plate (Perkin Elmer, Cat No. 6055690) was prefoamed with 0.3% PEI, and the membrane proteins in the reaction solution were collected by filtration onto the GF/C plate. The signal values were read by a Perkin Elmer Microbeta2 instrument and the inhibition rate for each concentration point was shown as a percentage.

Chain of M2 receptor (P08172 whole entry): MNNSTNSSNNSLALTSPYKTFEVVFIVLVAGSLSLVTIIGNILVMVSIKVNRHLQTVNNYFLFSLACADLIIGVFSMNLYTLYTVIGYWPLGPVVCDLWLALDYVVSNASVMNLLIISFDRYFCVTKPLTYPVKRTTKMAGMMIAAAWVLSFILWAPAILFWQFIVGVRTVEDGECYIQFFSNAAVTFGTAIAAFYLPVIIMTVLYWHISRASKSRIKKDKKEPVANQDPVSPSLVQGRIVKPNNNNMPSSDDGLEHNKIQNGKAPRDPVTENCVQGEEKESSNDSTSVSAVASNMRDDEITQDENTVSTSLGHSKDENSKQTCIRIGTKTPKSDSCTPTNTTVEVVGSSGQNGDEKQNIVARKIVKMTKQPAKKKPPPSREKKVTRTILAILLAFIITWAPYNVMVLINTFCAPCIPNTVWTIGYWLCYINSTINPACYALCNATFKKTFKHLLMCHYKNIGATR

With `CN(CCCn1nnc2cc(CNC[C@H](O)c3ccc(O)c4[nH]c(=O)ccc34)c3c(c21)CCC3)[C@H]1CC[C@H](OC(=O)C(O)(c2cccs2)c2cccs2)CC1` [listing 1 of 3 here] the “crystal form after placement (XRPD)” value [1] was “remained unchanged”.

With `CN(CCCn1nnc2cc(CNC[C@H](O)c3ccc(O)c4[nH]c(=O)ccc34)c3c(c21)CCC3)[C@H]1CC[C@H](OC(=O)C(O)(c2cccs2)c2cccs2)CC1` [listing 2 of 3 here] the moisture adsorption ([2]; 25° C./80% RH) was 7.84%, the “crystal form after the DVS test (XRPD)” value ([2]; XRPD before and after DVS test) was “remained unchanged” and the “TGA weight loss (%, 150° C)” value ([3]; ~81% RH (saturated potassium bromide solution)/room temperature) was 10.4%. The “TGA weight loss (%, 150° C)” value ([3]; ~94% RH (saturated potassium nitrate solution)/room temperature) was 9.9%.

`CN(CCCn1nnc2cc(CNC[C@H](O)c3ccc(O)c4[nH]c(=O)ccc34)c3c(c21)CCC3)[C@H]1CC[C@H](OC(=O)C(O)(c2cccs2)c2cccs2)CC1` [listing 3 of 3 here] gave an IC50 (M2 receptor) of 0.062 nM.
